Read-outs that look alike come from different tables or passages of the source.

The values below come from patent US8957093B2, “N-biphenylmethylindole modulators of PPARG” (The Scripps Research Institute, priority 2011, dated 2015).

For this assay, the target named is GST-PPARG-LBD (Homo sapiens (Human), UniProt P37231). The assay is described as follows: Lanthascreen PPARG competitive binding assay (Invitrogen, TR-FRET). The conditions noted are these: NA = not active, inc = incomplete curve; for IC50: read-out: IC50 (nM) Lantha. How it is done:
Lanthascreen PPARG Competitive Binding Assay (Invitrogen)
The assay was performed according to manufacturer protocol. A mixture of […], 5 nM Tb-GST-antibody, 5 nM Fluormone Pan-PPAR Green, and serial dilutions of the experimental compound, beginning at 10 μM downwards, was added to wells of black 384-well low-volume plates (Greiner) to a total volume of 18 μL. All dilutions were made in TR-FRET assay buffer C. DMSO at 2% final concentration was used as a no-ligand control. Experiment was performed in triplicate, and incubated for 2 hours in the dark prior to assay read in Perkin Elmer ViewLux ultra HTS microplate reader. FRET signal was measured by excitation at 340 nm and emission at 520 nm for fluorescein and 490 nm for terbium. Fold change over DMSO was calculated using GraphPad Prism Software (La Jolla, Calif.) by calculating 520 nm/490 nm ratio. Graphs were plotted as fold change of FRET signal for compound treatment over DMSO-only control.
In general terms: TR-FRET usually uses a lanthanide donor and a delayed reading to cut background.

Setting [1] is: Lanthascreen competitive binding.
Setting [2] is: Lanthascreen PPARG competitive binding.

Sequence of GST-PPARG-LBD (P37231 238-503): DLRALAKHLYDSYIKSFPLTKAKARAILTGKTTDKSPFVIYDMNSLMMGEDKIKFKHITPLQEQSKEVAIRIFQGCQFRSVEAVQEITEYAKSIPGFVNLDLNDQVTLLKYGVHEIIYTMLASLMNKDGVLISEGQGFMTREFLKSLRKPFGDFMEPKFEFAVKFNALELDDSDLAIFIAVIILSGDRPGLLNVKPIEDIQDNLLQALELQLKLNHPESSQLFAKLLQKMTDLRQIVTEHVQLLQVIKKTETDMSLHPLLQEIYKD

Turning to `Cc1c(C)n(Cc2ccc(-c3ccccc3C(=O)O)cc2)c2ccc(C(=O)N[C@@H](C)c3ccc(N)cc3)cc12` [Example 99, (S)-4′-((5-(1-(4-aminophenyl)ethylcarbamoyl)-2,3-dimethyl-1H-indol-1-yl)methyl)biphenyl-2-carboxylic acid], under setting [1], the half-maximal inhibitory concentration (IC50) came out at 240 nM.

On to `CSc1ccc(-c2ccc(Cn3ccc4cc(C(=O)N[C@@H](C)c5ccc([N+](=O)[O-])cc5)ccc43)cc2)cc1` [Example 51, (S)-1-((4′-(Methylthio)-[1,1′-biphenyl]-4-yl)methyl)-N-(1-(4-nitrophenyl)ethyl)-1H-indole-5-carboxamide], for which the IC50 under setting [1] was above 1000 nM.

As for `Cc1cn(Cc2ccc(-c3ccccc3C(=O)O)cc2)c2ccc(C(=O)N[C@@H](C)c3ccc(Br)cc3)cc12` [Example 132, (S)-4′-((5-((1-(4-Bromophenyl)ethyl)carbamoyl)-3-methyl-1H-indol-1-yl)methyl)-[1,1′-biphenyl]-2-carboxylic acid], under setting [1], the IC50 came out at 24 nM.

For `C[C@H](NC(=O)c1ccc2c(ccn2Cc2ccc(-c3cccc(C(=O)O)c3)cc2)c1)c1ccc([N+](=O)[O-])cc1` [Example 60, (S)-4′-((5-((1-(4-Nitrophenyl)ethyl)carbamoyl)-1H-indol-1-yl)methyl)-[1,1′-biphenyl]-3-carboxylic acid], under setting [1], the IC50 was above 1000 nM.

`COc1c(F)cccc1[C@H](C)NC(=O)c1ccc2c(c1)c(C)c(C)n2Cc1ccc(-c2ccccc2C(=O)O)cc1` [Example 177, (S)-4′-((5-((1-(3-fluoro-2-methoxyphenyl)ethyl)carbamoyl)-2,3-dimethyl-1H-indol-1-yl)methyl)-[1,1′-biphenyl]-2-carboxylic acid]: under setting [1], the 50% inhibitory concentration (IC50) was determined as 21 nM.

In the case of `CCC(NC(=O)c1ccc2c(ccn2Cc2ccccc2-c2ccccc2C(=O)O)c1)c1ccccc1` (stereo not drawn) [Example 68, 2′-((5-((1-phenylpropyl)carbamoyl)-1H-indol-1-yl)methyl)-[1,1′-biphenyl]-2-carboxylic acid], the IC50 under setting [1] was above 1000 nM.

`Cc1c(C)n(Cc2ccc(-c3ccccc3C(=O)O)cc2)c2ccc(C(=O)N(C)Cc3ccccc3)cc12` [compound 3, 4′-((5-(Benzyl(methyl)carbamoyl)-2,3-dimethyl-1H-indol-1-yl)methyl)biphenyl-2-carboxylic acid]: under setting [1], the concentration for half-maximal inhibition (IC50) was 206 nM.

As for `Cc1c(C)n(Cc2ccc(-c3ccccc3C(=O)O)cc2)c2ccc(C(=O)N[C@@H](C)c3ccc4ccccc4c3)cc12` [compound 26, (S)-4′-((2,3-Dimethyl-5-((1-(naphthalen-2-yl)ethyl)carbamoyl)-1H-indol-1-yl)methyl)-[1,1′-biphenyl]-2-carboxylic acid], under setting [1], the IC50 is above 1000 nM.

For the compound `Cc1c(C)n(Cc2ccc(-c3ccccc3C#N)cc2)c2ccc(C(=O)N[C@@H](C)c3ccccc3Cl)cc12` [Example 287, (S)—N-(1-(2-chlorophenyl)ethyl)-1-((2′-cyano-[1,1′-biphenyl]-4-yl)methyl)-2,3-dimethyl-1H-indole-5-carboxamide], the “IC50 (nM) Lantha” value under setting [2] is on record as “inc”.

On to `C[C@H](NC(=O)c1ccc2c(ccn2Cc2ccc(-c3cccc(CN)c3)cc2)c1)c1ccc([N+](=O)[O-])cc1` [Example 53, (S)-1-((3′-(Aminomethyl)-[1,1′-biphenyl]-4-yl)methyl)-N-(1-(4-nitrophenyl)ethyl)-1H-indole-5-carboxamide], for which the IC50 under setting [1] was above 1000 nM.

As to `Cc1c(C)n(Cc2ccc(-c3ccccc3C#N)cc2)c2ccc(C(=O)N[C@@H](C)c3cccc(C(C)C)c3)cc12` [Example 242, (S)-1-((2′-cyano-[1,1′-biphenyl]-4-yl)methyl)-N-(1-(3-isopropylphenyl)ethyl)-2,3-dimethyl-1H-indole-5-carboxamide], under setting [1], the “IC50 (nM) Lantha” value was “inc”.

On to `CCC(NC(=O)c1ccc2c(c1)c(C)c(C)n2Cc1ccccc1-c1cccc(C(=O)O)c1)c1ccccc1` (stereo not drawn) [Example 126, 2′-((2,3-Dimethyl-5-((1-phenylpropyl)carbamoyl)-1H-indol-1-yl)methyl)-[1,1′-biphenyl]-3-carboxylic acid], for which, under setting [1], the IC50 was determined as 99 nM.

As to `CC[C@H](NC(=O)c1ccc2c(ccn2Cc2ccccc2-c2ccc(C(=O)O)cc2)c1)c1ccccc1` [Example 189, (S)-2′-((5-((1-phenylpropyl)carbamoyl)-1H-indol-1-yl)methyl)-[1,1′-biphenyl]-4-carboxylic acid], the IC50 under setting [1] came out at 100 nM.

`Cc1c(C)n(Cc2ccc(-c3ccccc3C(=O)NC[C@@H](O)C(=O)N(C)C)cc2)c2ccc(C(=O)N[C@@H](C)c3cccc(C(C)C)c3)cc12` [Example 309, 1-((2′-(((R)-3-(Dimethylamino)-2-hydroxy-3-oxopropyl)carbamoyl)-[1,1′-biphenyl]-4-yl)methyl)-N-((S)-1-(3-isopropylphenyl)ethyl)-2,3-dimethyl-1H-indole-5-carboxamide]: the IC50 under setting [2] was above 1000 nM.

Turning to `Cc1c(C)n(Cc2ccc(-c3ccccc3C(=O)O)cc2)c2ccc(C(=O)N[C@@H](C)c3ccc(S(C)(=O)=O)cc3)cc12` [Example 258, (S)-4′-((2,3-dimethyl-5-(1-(4-(methylsulfonyl)phenyl)ethylcarbamoyl)-1H-indol-1-yl)methyl)biphenyl-2-carboxylic acid], the IC50 under setting [1] stood at 636 nM.

On to `Cc1c(C)n(Cc2ccc(-c3ccccc3C(=O)O)cc2)c2ccc(C(=O)N[C@H](C)c3c(F)cncc3F)cc12` [Example 215, (R)-4′-((5-((1-(3,5-difluoropyridin-4-yl)ethyl)carbamoyl)-2,3-dimethyl-1H-indol-1-yl)methyl)-[1,1′-biphenyl]-2-carboxylic acid], for which, under setting [1], the IC50 worked out at 309 nM.

`Cc1c(C)n(Cc2ccc(-c3ccccc3C(=O)O)cc2)c2ccc(C(=O)N[C@@H](C)c3ccccc3OC(F)(F)F)cc12` [Example 256, (S)-4′-((2,3-dimethyl-5-(1-(2-(trifluoromethoxy)phenyl)ethylcarbamoyl)-1H-indol-1-yl)methyl)biphenyl-2-carboxylic acid]: under setting [1], the IC50 was determined as 38 nM.

`Cc1c(C)n(Cc2ccc(-c3ccccc3C(=O)O)cc2)c2ccc(C(=O)N[C@H](C)c3ccc(S(C)(=O)=O)cc3)cc12` [Example 276, (R)-4′-((2,3-dimethyl-5-(1-(4-(methylsulfonyl)phenyl)ethylcarbamoyl)-1H-indol-1-yl)methyl)biphenyl-2-carboxylic acid]: the IC50 under setting [2] is 11 nM.

As for `Cc1ccc([C@H](C)NC(=O)c2ccc3c(c2)c(C)c(C)n3Cc2ccc(-c3ccccc3C#N)cc2)cc1` [Example 288, (S)-1-((2′-cyano-[1,1′-biphenyl]-4-yl)methyl)-2,3-dimethyl-N-(1-(p-tolyl)ethyl)-1H-indole-5-carboxamide], the “IC50 (nM) Lantha” value under setting [2] is listed as “inc”.

`Cc1c(C)n(Cc2ccc(-c3ccccc3C(=O)O)cc2)c2ccc(C(=O)NCc3ccc(C(F)(F)F)cc3)cc12` [Example 101, 4′-((2,3-dimethyl-5-(4-(trifluoromethyl)benzylcarbamoyl)-1H-indol-1-yl)methyl)biphenyl-2-carboxylic acid]: the IC50 under setting [1] came out at 208 nM.

In the case of `COc1ccccc1[C@H](C)NC(=O)c1ccc2c(c1)c(C)c(C)n2Cc1ccc(-c2ccccc2C#N)cc1` [Example 292, (S)-1-((2′-cyano-[1,1′-biphenyl]-4-yl)methyl)-N-(1-(2-methoxyphenyl)ethyl)-2,3-dimethyl-1H-indole-5-carboxamide], under setting [2], the “IC50 (nM) Lantha” value was “inc”.

With `Cc1c(C)n(Cc2ccc(-c3ccccc3S(=O)(=O)NC(C)(C)C)cc2)c2ccc(C(=O)N[C@@H](C)c3cccc(C(C)C)c3)cc12` [Example 246, (S)-1-((2′-(N-(tert-butyl)sulfamoyl)-[1,1′-biphenyl]-4-yl)methyl)-N-(1-(3-isopropylphenyl)ethyl)-2,3-dimethyl-1H-indole-5-carboxamide], under setting [1], the IC50 was above 1000 nM.

`C[C@H](NC(=O)c1ccc2c(ccn2Cc2ccc(-c3ccccc3CO)cc2)c1)c1ccc([N+](=O)[O-])cc1` [Example 54, (S)-1-((2′-(Hydroxymethyl)-[1,1′-biphenyl]-4-yl)methyl)-N-(1-(4-nitrophenyl)ethyl)-1H-indole-5-carboxamide]: the IC50 under setting [1] is above 1000 nM.

As to `Cc1c(C)n(Cc2ccc(-c3ccccc3C#N)cc2)c2ccc(C(=O)N[C@@H](C)c3ccc(F)cc3F)cc12` [Example 286, (S)-1-((2′-cyano-[1,1′-biphenyl]-4-yl)methyl)-N-(1-(2,4-difluorophenyl)ethyl)-2,3-dimethyl-1H-indole-5-carboxamide], the “IC50 (nM) Lantha” value under setting [2] was “inc”.

Take `C[C@H](NC(=O)c1ccc2c(ccn2Cc2ccc(-c3ccccc3C(=O)OC(C)(C)C)cc2)c1)c1ccc([N+](=O)[O-])cc1` [Example 55, (S)-tert-Butyl 4′-((5-((1-(4-nitrophenyl)ethyl)carbamoyl)-1H-indol-1-yl)methyl)-[1,1′-biphenyl]-2-carboxylate]: the IC50 under setting [1] is above 1000 nM.

As to `Cc1c(C)n(Cc2ccc(-c3ccccc3C(=O)O)cc2)c2ccc(C(=O)NCC(=O)c3ccccc3)cc12` [compound 31, 4′-((2,3-Dimethyl-5-((2-oxo-2-phenylethyl)carbamoyl)-1H-indol-1-yl)methyl)-[1,1′-biphenyl]-2-carboxylic acid], the IC50 under setting [1] amounted to 244 nM.

As to `Cc1c(C)n(Cc2ccc(-c3ccccc3C#N)cc2)c2ccc(C(=O)N[C@@H](C)c3cccc(Br)c3)cc12` [Example 284, (S)—N-(1-(3-bromophenyl)ethyl)-1-((2′-cyano-[1,1′-biphenyl]-4-yl)methyl)-2,3-dimethyl-1H-indole-5-carboxamide], under setting [2], the “IC50 (nM) Lantha” value is recorded as “inc”.

The IC50 is the concentration that inhibits the measured activity by half.
